The values that follow come from publication PMC7460216 (Marine Drugs, 2020).

Like-named read-outs stand apart in the source and are kept apart here.

One data set relates to Leishmania donovani. Nature of the data set: Antiparasitic assay, Leishmania donovani. The settings on record: for IC50: mean of duplicate assays, read-out: L. Don. IC50. It is filed as cell-based. The source says:
(§1) The set of compounds were screened against a panel of four parasitic protozoa: Trypanosoma brucei rhodesiense, Trypanosoma cruzi, Leishmania donovani and Plasmodium falciparum K1 dual drug-resistant strain.
(§2) Detailed protocols for these assays have been described elsewhere.

The next data set has as its system Trypanosoma cruzi. Put plainly: Antiparasitic assay, Trypanosoma cruzi. It is filed as cell-based. The settings on record: for IC50: mean of duplicate assays, read-out: T. Cruzi IC50.
From the text: as §1, §2

In data set [1] the test system is Plasmodium falciparum K1 dual drug-resistant strain. Put plainly: Antiparasitic assay, Plasmodium falciparum K1. It is filed as cell-based. The settings on record: for SI Pf, antiplasmodial selectivity index = L6 IC50/P f. IC50: L6 versus P. falciparum K1.
From the text: as §1, §2

For data set [2], the system named is Trypanosoma brucei rhodesiense. Put plainly: Antiparasitic assay, Trypanosoma brucei rhodesiense. It is filed as cell-based. The settings on record: for IC50: read-out: T. B. Rhod. IC50.
From the text: as §1, §2

The nature of another data set: L6 cytotoxicity assay. It is filed as cell-based, rat. Conditions: rat, mean of duplicate assays.
For data set [3] the following is noted: cited from earlier work.
The test system of data set [4] is panel of human tumour cell lines (NCI 60 cell-line panel). Put plainly: cells. Conditions: for tumour cell mean growth: preliminary single dose (10 μM) testing. The source says: Protocols of testing at the DTP, NCI have been described elsewhere.
A further data set concerns Pf W2 clone. The settings on record: cited from earlier work.
Another data set concerns Vero cell line. Also on record: method as in PMID 20337497. The settings on record: cited from earlier work.
Data set [5] deals with Plasmodium falciparum (Pf) D6 clone. Also on record: method as in PMID 20337497. Conditions: cited from earlier work.
Data set [6] concerns L6 rat skeletal myoblast cell line. Put plainly: L6 cytotoxicity assay. Type of data set: cell-based.
The test system of data set [7] is human colon tumour cell line HCT-116. Conditions: read-out: HCT-116 IC50 (cytotoxicity); cited from earlier work.
The test system of data set [8] is non-malignant human keratinocyte cell line. Set-up: method as in PMID 32054048. The settings on record: read-out: human keratinocyte cell line IC50 (cytotoxicity); cited from earlier work.
Where [9] appears, read: Plasmodium falciparum, K1, read-out: P. Falc. K1 IC50.
Setting [10] is: Trypanosoma brucei, RHODESIENSE, mean of duplicate assays.
Where [11] appears, read: Leishmania donovani, read-out: L. Don. % inhibition.
The mark [12] stands for this setting: Trypanosoma cruzi, read-out: T. Cruzi % inhibition.
Where [13] appears, read: Plasmodium falciparum, K1, read-out: P. Falc. K1 % inhibition.
Setting [14] is: Trypanosoma brucei, RHODESIENSE

As for `Cn1cnc(SC2[C@H]3C(=O)C=C4S[C@H]5C[C@]42C2=C(N5)C(=O)c4[nH]cc5c4C2=[N+]3CC5)c1C[C@H](N)C(=O)O` (single isomer, unassigned; (+)) [Compound 12, (+)-discorhabdin H2], the IC50 in the data set on Leishmania donovani (Leishmania donovani) was found to be 94 µM; with Trypanosoma cruzi (Trypanosoma cruzi), 63 µM; in data set [1] (setting [9]) it was 12 µM; in [2] (setting [10]), 2.3 µM; in the data set “L6 cytotoxicity assay” it was 17 µM. Also, the “SI Pf, antiplasmodial selectivity index = L6 IC50/P f. IC50” value in data set [1] was 1.4.

Consider `O=C1C=C2S[C@H]3C[C@]2(C=C1Br)C1=C(N3)C(=O)c2[nH]cc3c2C1=NCC3` [Compound 1, (+)-discorhabdin B], for which the inhibition at 1.5 µM with Leishmania donovani (setting [11]) came to 57%; in the data set with Trypanosoma cruzi (setting [12]), 100%; in [1] (setting [13]) it was 100%; in data set [2] (Trypanosoma brucei, RHODESIENSE, read-out: T. B. Rhod. % inhibition) it was 99%. The “cytotoxicity (in words, Figure 9)” value in data set [3] is “Cytotoxic”.

Turning to `CCCCCSC1=CC(=O)C(Br)=CC12CCNC1=C2C2=NCCc3c[nH]c(c32)C1=O` (stereo not shown) [Compound 4, Thiopentanyl-Discorhabdin C Adduct], in data set [4] (Homo sapiens, read-out: GI50 (50% growth inhibition)), the GI50 stood at 1.4 µM. Also, the CC50 in [4] (Homo sapiens, read-out: LC50 (50% cell kill)) was 10.5 µM. Moreover, the “TGI (total growth inhibition)” value in data set [4] (averaged calculated mean over panel, two experiments at the NCI) is 3.9 µM.

As to `CCCCCNC1[C@@H]2[N+]3=C4C5=C(NCC[C@@]51[C@@H](O)[C@@H](Br)C2(O)O)C(=O)c1[nH]cc(c14)CC3` (stereo partly shown) [Compound 6, Aminopentane Discorhabdin C Dihydrate Adduct], the “tumour cell line cytotoxicity / antitumour activity (in words)” value in [4] (NCI human tumour cell line panel) is “inactive”. Also, the “tumour cell mean growth” value in [4] is 100.67%. Moreover, the “SI Pf, antiplasmodial selectivity index = L6 IC50/P f. IC50” value in data set [1] was 3.2. Moreover, the IC50 in data set [1] (setting [9]) turned out to be 0.25 µM; in the data set “L6 cytotoxicity assay” it was 0.81 µM.

For `O=C1C2=C3C4=[N+](CCc5c[nH]c1c54)C1(O)CCC3(CCN2)CC1` [Compound 7, Discorhabdin C Hydrogenation Product], the “tumour cell mean growth” value in [4] is 99.57%. Besides, in data set [1], the “SI Pf, antiplasmodial selectivity index = L6 IC50/P f. IC50” value is on record as 19. For the same molecule, the IC50 in [1] (Plasmodium falciparum, K1, mean of duplicate assays, read-out: P. Falc. K1 IC50) worked out at 0.09 µM; in “L6 cytotoxicity assay” (L6 rat skeletal myoblast cells), 1.7 µM.

`O=C1C(Br)=CC2(C=C1Br)CCNC1=C2C2=NCCc3cn(C4C5[N+]6=C7C8=C(NCCC84C(O)C(Br)C5(O)O)C(=O)c4[nH]cc(c47)CC6)c(c32)C1=O` (stereo not shown) [Compound 8]: the IC50 in the data set with Leishmania donovani (Leishmania donovani) came out at 18.7 µM; in the data set with Trypanosoma cruzi (Trypanosoma cruzi), 11.1 µM; in data set [1] (setting [9]), 6.4 µM; in data set [2] (setting [10]) it was 0.71 µM; in the data set “L6 cytotoxicity assay” it was 2.1 µM. In data set [1], the “SI Pf, antiplasmodial selectivity index = L6 IC50/P f. IC50” value is 0.3. In [2], the “activity towards Trypanosoma brucei rhodesiense (in words)” value is given as “sub-micromolar”.

As to `O=C1C2=C(C3=NCCc4c[nH]c1c43)C1(C=C(Br)C(O)C(Br)=C1)CCN2` (stereo not shown) [Compound 9, 3-dihydrodiscorhabdin C], the IC50 with Pf W2 clone is 0.13 µM; in data set [1] (mean of duplicate assays, read-out: P. Falc. K1 IC50), 0.4 µM; with Vero cell line, 9.8 µM; in data set [5], 0.17 µM; in [6], 0.11 µM.

Consider `O=C1C2=C3C4=[N+](CCc5c[nH]c1c54)[C@@H]1C(=O)C=C4S[C@@H](C[C@@]43C1O)N2` (stereo partly shown) [Compound 14], for which the inhibition at 1.9 µM (in the data set with Leishmania donovani (setting [11]); in [1] (setting [13])) was 20% each time. Moreover, the inhibition at 12 µM in the data set on Trypanosoma cruzi (setting [12]) stood at 9%. The IC50 came to 1.3 µM in data set [2] (setting [14]) and 11 µM in the data set “L6 cytotoxicity assay”.

Consider `CSC1=CC(=O)C(Br)=C[C@]12C=CNC1=C2C2=NCCc3cn(C)c(c32)C1=O` [Compound 16], for which the “SI Pf, antiplasmodial selectivity index = L6 IC50/P f. IC50” value in [1] is 3.6. In addition, the IC50 in data set [1] (setting [9]) amounted to 1.7 µM; in “L6 cytotoxicity assay”, 6.1 µM.

In the case of `O=C1C2=C(C3=NCCc4c[nH]c1c43)c1c(cc(Br)c(O)c1Br)CCN2` [Compound 17], the inhibition at 0.8 µM in the data set on Leishmania donovani (Leishmania donovani, at 0.8 μM, read-out: L. Don. % inhibition) turned out to be 29%; with Trypanosoma cruzi (Trypanosoma cruzi, at 0.8 μM, read-out: T. Cruzi % inhibition), 0%. The IC50 is 0.16 µM in data set [7]; 0.08 µM in [1] (setting [9]); 0.33 µM in data set [2] (setting [10]); 41 µM in the data set “L6 cytotoxicity assay”; 0.56 µM in data set [8]. In [1], the “SI Pf, antiplasmodial selectivity index = L6 IC50/P f. IC50” value turned out to be 510. The “activity towards Trypanosoma brucei rhodesiense (in words)” value in data set [2] was “sub-micromolar”.

On to `O=C(Cn1ccnc1[N+](=O)[O-])NCc1ccccc1` [benznidazole, reference compound], for which, in the data set with Trypanosoma cruzi (Trypanosoma cruzi), the IC50 was 1.35 µM.

Take `CCN(CC)CCCC(C)Nc1ccnc2cc(Cl)ccc12` (stereo not shown) [chloroquine, reference compound]: in data set [1] (setting [9]), the IC50 stood at 0.2 µM.

Consider `Nc1nc(N)nc(Nc2ccc([As]3SCC(CO)S3)cc2)n1` (stereo not shown) [melarsoprol, reference compound], for which the IC50 in data set [2] (setting [14]) amounted to 0.01 µM.

Turning to `CCCCCCCCCCCCCCCCOP(=O)([O-])OCC[N+](C)(C)C` [miltefosine, reference compound], the IC50 with Leishmania donovani (Leishmania donovani) amounted to 0.52 µM.

For `COc1cc([C@@H]2c3cc4c(cc3[C@H](O)[C@H]3COC(=O)[C@H]23)OCO4)cc(OC)c1OC` [podophyllotoxin, reference compound], in “L6 cytotoxicity assay”, 0.01 µM corresponded to half-maximal inhibition (IC50).

Regarding discorhabdin U [Compound 15], in the data set on Leishmania donovani (at 1.5 μM), the “L. Don. % inhibition” value was 97% (1.5). Also, in the data set on Trypanosoma cruzi (at 1.5 μM), the “T. Cruzi % inhibition” value was 100% (1.5). Further, the “P. Falc. K1 % inhibition” value in [1] (at 1.5 μM) was 100% (1.5). For the same molecule, the “T. B. Rhod. % inhibition” value in data set [2] (at 1.5 μM) is on record as 100% (1.5).

As a reminder, the IC50 is the point on the concentration scale where inhibition reaches its midpoint. Broadly, the inhibition is the change of the read-out against control, counted positive when it falls. Broadly, the GI50 is the concentration that inhibits growth by half.
